Target: T1, human farnesyl transferase (FTase) (Homo sapiens, UniProt P49354+P49356)
T1 construct: comprising the cytosolic fraction of homogenized brain tissue; from tissue; host or cells: brain tissue, cytosolic fraction (crude FTase)
Test: in vitro inhibition of human FTase, farnesyl transferase (3H) scintillation proximity assay
Assay type: biochemical
Excerpt: The activity of the compounds of formula 1 and formula 2 as Ras farnesylation inhibitors may be determined by their ability, relative to a control, to inhibit Ras farnesyl transferase in vitro. An example of one such procedure is described below.
A crude preparation of human farnesyl transferase (FTase) comprising the cytosolic fraction of homogenized brain tissue is used for screening compounds in a 96-well assay format. […]
The assay used to measure in vitro inhibition of human FTase is a modification of the method described by Amersham LifeScience for using their Farnesyl transferase (3H) Scintillation Proximity Assay (SPA) kit (TRKQ 7010). FTase enzyme activity is determined in a volume of 100 μl containing 50 mM N-(2-hydroxy ethyl) piperazine-N-(2-ethane sulfonic acid) (HEPES), pH 7.5, 30 mM MgCl2, 20 mM KCl, 25 mM Na2HPO4, 5 mM dithiothreitol (DTT), 0.01% Triton X-100, 5% dimethyl sulfoxide (DMSO), […] of crude FTase, […] [3H]-famesyl pyrophosphate ([3H]-FPP; 36000 dpm/pmole, Amersham LifeScience), and 0.2 μM of biotinylated Ras peptide KTKCVIS (Bt-KTKCVIS) that is N-terminally biotinylated at its alpha amino group and was synthesized and purified by HPLC in house. […] The amount of radioactivity bound to the SPA beads is determined using a MicroBeta 1450 plate counter. […]

activity in inhibiting the enzyme farnesyl protein transferase, relative to the levorotatory isomer (compared with the levorotatory isomer, figures not given): greater activity
IC50 (crude FTase (cytosolic fraction of brain tissue), [3H]-FPP, Bt-KTKCVIS, 45 minute incubation at 37° C., read-out: IC50 value for inhibiting farnesylation of the biotinylated KTKCVIS-peptide): < 500 nM
SMILES: Cn1cncc1C(N)(c1ccc(Cl)nc1)c1ccc2c(c1)c(-c1cccc(Cl)c1)cc(=O)n2CC1CC1 (single isomer, unassigned; (+)) [Example 8, (+)-6-[Amino-(6-chloro-pyridin-3-yl)-(3-methyl-3H -imidazol-4-yl)-methyl]-4-(3-chloro-phenyl)-1-cyclopropylmethyl-1H-quinolin-2-one]
